Patent publication US6756399B2, “Use of lipoxygenase inhibitors and PPAR ligands as anti-cancer therapeutic and intervention agents” (The United States of America as represented by the …, priority 2001, dated 2004)
Entries after “also recorded” stand apart in the source; their conditions may differ.

Key:
[1] = system: H345 cell line; test: Apo-1 Caspase 3/7 apoptosis assay, H345; type: cell-based
Method: (§1) Lung cancer cell lines used for PPAR analysis included A549, H510, H345, and N417. The FLAP inhibitor: MK886 and COX inhibitor: indomethacin, and combinations thereof, were used as AA inhibitors. PPARs for the analysis included PGJ2 (γ ligand); ciglitazone (γ agonist); LY171882 (γ receptor activator); and WY 14643 (α activator). In order to analyze PPARs in lung cancer cells, growth inhibition (MTT, BrdU); apoptosis (Caspase 3/7 and M30 IHC); and mRNA Northern analyses were performed.
(§2) Apoptosis was determined at particular time points using the Apo-1Caspase 3/7 assay.

[2] = system: A549, H510, H345, and N417 lung cancer cell lines; test: Growth inhibition (MTT, BrdU) in lung cancer cell lines; type: cell-based; conditions: all tested cell lines (A549, H510, H345, N417)
Method: as §1

[3] = system: T47D breast cancer cell line; test: Proliferation assay, breast cancer cell line T47D; type: cell-based; conditions: compared to vehicle control
Method: (§3) Breast cancer cell line ZR-75 was grown in the presence of 5 μM inhibitors for 24 and 48 hrs, total RNA was isolated and RT-PCR performed for PPARα and PPARγ using specific primers. Results are presented as percent of control after normalizing with the actin values. The experiment was repeated three times. The error bars indicate standard deviation. […] All values were determined by assessment of % growth inhibition calculated from the optical density value, with a minimum of 6 replicates from at least three different experiments per cell line. The ligands included WY-14643 (open circles); LY 171883 (closed circles); fenofibrate (triangles); clofibrate (diamonds).
(A) Northern blot analysis for PPARγ (1.8 Kb), of breast cancer cell line T47D treated with 5 μM MK 886 for 6, 12, 24 hrs and untreated control. RNA was isolated as described in Methods, and […] of total RNA was loaded per lane. Ethidium bromide staining of 28S rRNA was used to check for equal loading and RNA integrity (lower panel). (B) RNA isolated from T47D cells treated with 5 μM MK 886 for different time periods were subjected to RT-PCR using specific primers for PPARγ. The PCR products were normalized to actin gene and 18S. PCR products were quantified by densitometry and the data points presented are expressed as percent of control, and represent mean and SEM of three experiments. […]

[4] = system: ZR-75 breast cancer cell line; test: Proliferation assay, breast cancer cell line ZR-75; type: cell-based; conditions: ZR-75, compared to vehicle control
Method: as §3
Cell lines used in the study were obtained from the American Type Culture Collection (Rockville, Md.). They included MCF-7, ZR-75, T47 D; SKBR-3, and MB-231. The cells were maintained in RPMI-1640, or MEM Zinc option medium, supplemented with 5% fetal bovine serum (FBS), penicillin (50 units/ml) and streptomycin (50 μg/ml) (Life Technologies, Gaithersburg, Md.), in a humidified atmosphere of 95% air and 5% CO2 at 37° C.

[5] = system: A549 cell line; test: M30 immunohistochemistry for apoptosis, A549; type: cell-based
Method: as §1
(§4) M30 Immunohistochemistry was performed to test for apoptosis in the various lung cancer cell lines. […] Apoptosis was also observed in the H345 and N417 cell lines, but PPAR induction was low and no significant increase in PPAR protein expression was observed when tested in combination with PGJ2. […] In summary, combinations of FLAP inhibitors, cyclooxygenase inhibitors, and PPARγ ligands generally had additive effects in reducing lung cancer cell line growth; this generally correlated with measures of enhanced apoptosis.

[6] = system: PPARγ; test: Semi-quantitative RT-PCR for PPARγ in T47D cells; type: cell-based; conditions: 5 μM MK886, different time periods
Method: (§5) (A) Northern blot analysis for PPARγ (1.8 Kb), of breast cancer cell line T47D treated with 5 μM MK 886 for 6, 12, 24 hrs and untreated control. RNA was isolated as described in Methods, and […] of total RNA was loaded per lane. Ethidium bromide staining of 28S rRNA was used to check for equal loading and RNA integrity (lower panel). (B) RNA isolated from T47D cells treated with 5 μM MK 886 for different time periods were subjected to RT-PCR using specific primers for PPARγ. The PCR products were normalized to actin gene and 18S. PCR products were quantified by densitometry and the data points presented are expressed as percent of control, and represent mean and SEM of three experiments. (C) Breast cancer cell line T47D, was incubated with various concentrations of MK886 (circles) and then analyzed using a proliferation assay. After 12 hr incubation, the inhibitors were removed and replaced by media alone (open circles), or media with 4 μM LY 171883 (closed circles). LY 171883 in the presence of media without the FLAP inhibitor is shown (stars). After an additional 24 hr incubation time, the experiments were terminated. All values were determined by assessment of % growth inhibition calculated from the optical density value, with a minimum of 6 replicates from at least three different experiments. The error bars indicate standard deviation. […]

[7] = system: PPARγ; test: Northern blot analysis for PPARγ in T47D cells; type: cell-based, human; conditions: 5 μM MK886, 0, 6, 12, 24 hours
Method: as §5, with “(stars).” for “(stars). After an additional 24 hr incubation time, the experiments were terminated. All values were determined by assessment of % growth inhibition calculated from the optical density value, with a minimum of 6 replicates from at least three different experiments. The error bars indicate standard deviation.”
After treatment for the indicated time points (5 μM MK886 at 0, 6, 12, 24 hours), cells were washed with PBS and total RNA was extracted using the RNeasy Mini Kit (QUIAGEN Inc., Valencia, Calif.). […] Equal loading and integrity of RNA was monitored by ethidium bromide staining (FIG. 2A). […]

[8] = system: PPARα; test: RT-PCR for PPARα mRNA in breast cancer cell line ZR-75; type: cell-based; conditions: ZR-75, 5 μM, 24 and 48 hours
Method: as §3
(§6) Cells were grown for 24 hrs or 48 hrs in the presence or absence of inhibitors at 5 μM concentration. RNA was isolated using the Trizol method (Life Technologies, Gaithersburg, Md.), and RT-PCR was performed using specific primers for PPAR and actin control genes.
(§7) Forward (F) and reverse (R) primers used to detect PPAR cDNAs were: […]
(§8) The ethidium bromide stained image was digitized and the optical density calculated using the NIH Image program. Values were normalized with the actin value obtained with commercially available primers (Clontech Inc., Palo Alto, Calif. ). These experiments were repeated three times.

[9] = system: N417 cell line; test: Apo-1 Caspase 3/7 apoptosis assay, N417; type: cell-based
Method: as §1, §2

[10] = system: PPARα; test: Northern analysis, PPARα mRNA in A549; type: cell-based
Method: as §1
(§9) Northern analysis was performed with untreated cells and cells treated with AA inhibitors: MK886, indomethacin, or the combination of MK886 and indomethacin. […] There was also no expression after 24 hours of exposure to AA inhibitors, confirming previous Northern analyses. […] In the H510 cell line, no expression for PPARγ was observed.

[11] = system: H510 cell line; test: Apo-1 Caspase 3/7 apoptosis assay, H510; type: cell-based
Method: as §1, §2

[12] = system: A549 cell line; test: Apo-1 Caspase 3/7 apoptosis assay, A549; type: cell-based
Method: as §1, §2

[13] = system: PPARγ; test: RT-PCR for PPARγ mRNA in breast cancer cell line ZR-75; type: cell-based; conditions: ZR-75, 5 μM, 24 and 48 hours
Method: as §3, §6, §7, §8

[14] = system: PPARγ; test: Northern analysis, PPARγ mRNA in H345; type: cell-based
Method: as §1, §9

[15] = system: PPARγ; test: Northern analysis, PPARγ mRNA in A549; type: cell-based
Method: as §1, §9

[16] = system: 15-HETE; test: 15-HETE production after exposure to FLAP inhibitor; type: cell-based; conditions: in response to exposure to MK 886
[17] = system: H510 cell line; test: M30 immunohistochemistry for apoptosis, H510; type: cell-based
Method: as §1, §4

[18] = system: PPARδ; test: Northern analysis, PPARδ mRNA in A549; type: cell-based
Method: as §1, §9

SMILES: CC1(COc2ccc(CC3SC(=O)NC3=O)cc2)CCCCC1 (racemic) [ciglitazone, (±)-5-[4-(1-Methylcyclohexylmethoxy)-benzyl] thiazolidine-2,4-dione]
- apoptosis (Caspase 3/7) [1]: induced apoptosis
- growth of lung cancer cell lines [2]: reduced growth in a dose dependent manner

SMILES: CCCc1c(OCCCCc2nnn[nH]2)ccc(C(C)=O)c1O [LY 171883]
- apoptosis (Caspase 3/7) [1]: neither LY171882 or WY 14643 (α activator) induced apoptosis
- breast tumor cell growth [3]: dose dependent growth reduction
- breast tumor cell growth [4]: dose dependent growth reduction
- apoptosis (M30 immunohistochemistry) [5]: Some apoptosis also occurred

SMILES: CC(C)c1ccc2c(c1)c(SC(C)(C)C)c(CC(C)(C)C(=O)O)n2Cc1ccc(Cl)cc1 [MK886, 3-[1-(4-chlorobenzyl)-3-t-butyl-thio-5-isopropylindol-2-yl]-2,2-dimethylpropanoic acid]
- PPARγ induction (semi-quantitative RT-PCR) [6]: induction of PPARγ is more protracted
- PPARγ expression (Northern blot) [7]: induction of PPARγ is evident within six hours; also recorded: PPARγ expression levels increase
- PPARα expression [8]: up-regulation
- apoptosis (Caspase 3/7) [9]: two fold increase in apoptosis
- apoptosis (Caspase 3/7) [1]: induced apoptosis
- PPARα mRNA (Northern) [10]: no mRNA for PPARα
- apoptosis (Caspase 3/7) [11]: two fold induction of apoptosis
- apoptosis (Caspase 3/7) [12]: increased apoptosis
- PPARγ expression [13]: up-regulation
- PPARγ expression (Northern) [14]: PPARγ expression was induced
- PPARγ mRNA (Northern) [15]: Up-regulation of PPARγ
- 15-HETE production [16]: large increase
- apoptosis (M30 immunohistochemistry) [17]: apoptosis in the H510 cell line was observed
- PPARδ mRNA (Northern) [18]: some mRNA observed for PPARδ
- growth of lung cancer cell lines [2]: inhibited all tested cell lines in a dose dependent manner ranging from 0.25 to 2.0 μM

SMILES: CC(Cc1ccc(O)c(O)c1)C(C)Cc1ccc(O)c(O)c1 (stereo not drawn) [NDGA, Nordihydroguaiaretic acid]
- PPARα expression [8]: up-regulation
- PPARγ expression [13]: up-regulation

SMILES: CCCCC/C=C/C=C1/C(=O)C=C[C@@H]1C/C=C\CCCC(=O)O [PGJ2, 15-Deoxy-Δ^12,14-Prostaglandin J2]
- PPARγ expression (Northern) [14]: down regulated mRNA
- PPARγ mRNA (Northern) [15]: mRNA decreases to those levels observed with control
- apoptosis (M30 immunohistochemistry) [17]: apoptosis in the H510 cell line was observed
- growth of lung cancer cell lines [2]: reduced growth in a dose dependent manner

SMILES: CCOC(=O)C(C)(C)Oc1ccc(Cl)cc1 [clofibrate, 2-(4-chlorophenoxy)-2-methylpropanoic acid ethyl ester]
- breast tumor cell growth [3]: dose dependent growth reduction
- breast tumor cell growth [4]: dose dependent growth reduction

SMILES: COc1ccc2c(c1)c(CC(=O)O)c(C)n2C(=O)c1ccc(Cl)cc1 [indomethacin]
- apoptosis (Caspase 3/7) [11]: two fold induction of apoptosis
- PPARγ mRNA (Northern) [15]: Up-regulation of PPARγ
- apoptosis (M30 immunohistochemistry) [17]: apoptosis in the H510 cell line was observed
- growth of lung cancer cell lines [2]: no effect on growth, even at a concentration of greater than 10 μM
